Experimental data from PMC9312958, “A Novel and Selective Dopamine Transporter Inhibitor, (S)-MK-26, Promotes Hippocampal Synaptic Plasticity and Restores Effort-Related Motivational Dysfunctions” (Biomolecules, 2022).

Test system: extracellular dopamine levels
Experiment: In vivo microdialysis of extracellular dopamine (mPFC, NAc shell, NAc core)
Set-up: species or system Male Sprague Dawley rats
Details: for DA Concentrations (as Determined from AUCs): mean ± SEM
Experimental: Male Sprague Dawley rats (250–350 g, Janvier, France) were used for all in vivo microdialysis experiments. Animals were kept in groups of four in standard cages (38 cm × 60 cm × 20 cm) and were acclimated to the facility for at least ten days before the beginning of the experiment under controlled environmental conditions (22 ± 2 °C, 60% humidity, 12 h light/dark cycle, with lights on from 08:00 to 20:00 h), with water and standard laboratory food provided ad libitum. To limit the stress due to manipulation during the experiments, each animal was daily handled for approximately 1–2 min throughout the habituation period and contact with the animal house maintenance personnel was limited to a single attendant. The bedding in the home cages was never changed, neither the day before nor the day of the experiment. All experiments were performed between 10:00–18:00 h. (S)-MK-26 (1 or 10 mg/kg) or vehicle (Kolliphor 30% in distilled water) were freshly prepared on the day of the experiment and i.p. administered at a volume of 1.5 mL/kg. The day before the microdialysis experiment, rats were positioned in a stereotaxic apparatus (Stoelting Co., Wood Dale, IL, USA) and under isoflurane anaesthesia (1.5–2%) (Harvard Apparatus, Holliston, MA, USA) implanted with a vertical microdialysis probe. A probe with dialysis membrane of approximately 2–3 mm of free surface (prepared as previously described) was directed unilaterally at the mPFC (PrL and IL; coordinates: 3.0 mm anterior and 0.7 mm lateral to bregma, and 5.5 mm ventral to dura), at the NAc shell (coordinates: 2.0 mm anterior and 0.8 mm lateral to bregma, and 8.0 mm ventral to dura) or NAc core (coordinates: 1.6 mm anterior and 1.6 mm lateral to bregma, and 7.6 mm ventral to dura), according to the rat brain atlas. On the day of the experiment, the animals were transferred to a sound-proof room and after 1 h habituation period, the microdialysis probe was connected with polyethylene tubing to a CMA/100 microinfusion pump (Harvard Apparatus, Holliston, MA, USA) and perfused with a Ringer’s solution (147 mM NaCl, 3 mM KCl and 1.2 mM CaCl2, pH 6.5) at a flow rate of 2.5 µL/min. After an equilibration period of a 2 h of the perfusion medium with the extracellular fluid, dialysate aliquots of 37.5 µL were collected (every 15 min during the experiment) in polyethylene tubes kept on ice for the determination of dopamine concentrations. After collecting at least four dialysate aliquots, rats were i.p. injected with vehicle or (S)-MK-26 (1 or 10 mg/kg), and ten more dialysate aliquots were collected every 15 min. Dopamine concentrations in the dialysates from the NAc (core and shell) and mPFC were measured by high pressure liquid chromatography (HPLC) on a 7.5 cm × 3.0 mm i.d., Supelcosil C18, 3 µm particle size column, (Supelco, Supelchem, Milan, Italy) coupled to electrochemical detection (Coulochem II, ESA, Cambridge, MA, USA) using a 4011 dual cell, as previously described. Detection was performed in reduction mode, with potentials set to +350 and −180 mV. The mobile phase was 0.06 M citrate/acetate pH 4.2, containing methanol 20% v/v, 0.1 mM EDTA, 1 µM triethylamine, and 0.03 mM sodium dodecyl sulphate at a flow rate of 0.6 mL/min. The sensitivity of the assay was 0.125 pg. At the end of the experiments, the rats were sacrificed by decapitation; the brains were immediately removed from the skull and stored in 4% aqueous formaldehyde for 12–15 days. After this period, 40 µm coronal brain sections were prepared with a freezing microtome, stained with Neutral Red and inspected on a phase contrast microscope. The position of the tip of the microdialysis probe in the NAc (core and shell) and mPFC were then corroborated by following the tract of the microdialysis probe through a series of brain sections. […]

[O-][S@@+](Cc1cncs1)C(c1cccc(Cl)c1)c1cccc(Cl)c1 [(S)-MK-26, (S)-5-(((B(3-chlorophenyl)methyl)sulphinyl)methyl)thiazole]
DA Concentrations (as Determined from AUCs) (NAc core dialysate, 1 mg/kg i.p.): 3056 ± 644
DA Concentrations (as Determined from AUCs) (NAc core dialysate, 10 mg/kg i.p.): 7861 ± 1697
peak increase of extracellular dopamine concentration above basal values (NAc core, 1 mg/kg i.p.): about 25%
peak increase of extracellular dopamine concentration (NAc core, 10 mg/kg i.p., peak 60–75 min after treatment): about 65%
DA Concentrations (as Determined from AUCs) (NAc shell dialysate, 1 mg/kg i.p.): 2972 ± 1094
DA Concentrations (as Determined from AUCs) (NAc shell dialysate, 10 mg/kg i.p.): 7730 ± 1389
peak increase of extracellular dopamine concentration (NAc shell, 10 mg/kg i.p., peak 30–45 min after treatment): about 70%
DA Concentrations (as Determined from AUCs) (mPFC dialysate, 1 mg/kg i.p.): 3159 ± 223
DA Concentrations (as Determined from AUCs) (mPFC dialysate, 10 mg/kg i.p.): 4983 ± 547
peak increase of extracellular dopamine concentration (mPFC, 1 mg/kg i.p., peak at 30 min after treatment): about 40%
peak increase of extracellular dopamine concentration (mPFC, 10 mg/kg i.p., peak at 45 min after treatment): about 75%
